According to PMC9469500, “Targeting an Initiator Allergen Provides Durable and Expansive Protection against House Dust Mite Allergy” (ACS Pharmacology & Translational Science, 2022):
Structures can show the parent of a compound that is named as a salt.

Experiments:
[1] = plasma stability (human); assay type: in vitro ADME
[2] = Pharmacokinetics in rats; details: rat p.o.
Description: Soluble formulations were developed and verified by high performance liquid chromatography (HPLC)
1 mL/kg) and p.o. (5 mg/kg, 5 mL/kg) in non-fasted Sprague-Dawley rats (male, 200-300 g, 10-16 weeks
of age, groups of three animals per route per compound). Timed blood samples were taken after dosing
and plasma prepared for LC-MS-MS quantification of the test substance after inclusion of an internal
standard. A non -compartmental model in WinNonlin software was used to calculate pharmacokinetic

[3] = test system: unsensitized BN rats; assay: HDM extract challenge in unsensitized (naive) BN rats, duration of protection; assay type: in vivo; details: for performance in vivo (maximum inhibition of the eosinophil response, Figure 5A): focused library, durability of inhibition studies
[4] = test system: human hepatocytes; assay: hepatocyte stability (human); assay type: in vitro ADME
[5] = thermodynamic solubility; assay type: physicochemical; details: thermodynamic from solid
[6] = plasma stability (rat); assay type: in vitro ADME
[7] = Plasma protein binding (human); assay type: in vitro ADME
Description: Plasma Protein Binding Assay
Plasma protein binding (PPB) was determined using Rapid Equilibrium Dialysis chambers with 8 kDa cut-off inserts (Fisher Scientific UK Ltd, Leicestershire, UK). Rat (Sprague Dawley strain) plasma EDTA K2 (pooled, mixed sex, SeraLab, West Sussex, UK) was centrifuged (13,000 x g, 10 min) to remove precipitates before addition of compounds (initial concentration 5 µM). Concentrations were determined by liquid chromatography-tandem mass spectrometry (LC-MS-MS) (AB Sciex 3200 QTrap) after 4 h incubation at 37 °C with binding being calculated from the concentration of compound in each chamber. Assays were performed in replicate and the data expressed as mean ± s.e.
Cellular Stability of Compounds […]
Kaighn’s modification of Ham’s F12 medium (F12K). Cells were prepared for assay by washing 3 times with serum-free F12K. NR8383 Airway macrophages were grown in suspension culture in F12K, collected by centrifugation, washed in serum-free medium and aliquoted into test plates (1.4 x 10^6 cells/well). Both cell lines were treated with ADI compounds (100 nM) in serum -free F12K in a 5% CO 2 environment at 37 […]
n-Octanol (0.7 mL), pre -saturated with 10 mM PBS, pH7.4, was added to test compound (~1 mg) in a 2 mL HPLC vial followed by PBS (0. 7 mL), which had been pre -saturated with n -octanol. […]

[8] = test system: rat alveolar macrophage line NR8383; assay: Cellular stability in macrophages; assay type: in vitro ADME; details: 100 nM compound
Description: (§1) Cellular Stability of Compounds
(§2) The cellular stability of compounds in vitro was tested using rat airway epithelial cell line L2 and rat alveolar macrophage line NR8383 (ATCC©CRL-2192™). Assays were performed in replicate and the data expressed as mean ± s.e. mean. L2 cells were cultured to confluence in T25 flasks or 24 -well plates using Kaighn’s modification of Ham’s F12 medium (F12K). Cells were prepared for assay by washing 3 times with serum-free F12K. NR8383 Airway macrophages were grown in suspension culture in F12K, collected by centrifugation, washed in serum-free medium and aliquoted into test plates (1.4 x 10^6 cells/well). Both cell lines were treated with ADI compounds (100 nM) in serum -free F12K in a 5% CO 2 environment at 37 °C. Samples were removed for quantitative analysis by LC -MS-MS using appropriate multiple reaction monitoring transitions for each analyte. […]
(§3) n-Octanol (0.7 mL), pre -saturated with 10 mM PBS, pH7.4, was added to test compound (~1 mg) in a 2 mL HPLC vial followed by PBS (0. 7 mL), which had been pre -saturated with n -octanol. The mixture was shaken for 90 min before centrifugation for 10 min at 4,000 rpm. The upper organic layer (0.2 mL) and the aqueous layer (0.5 mL) were removed for analysis by LC-MS. Peak identity was confirmed by mass spectrometry and concentration assessed spectrophotometrically using a diode array detector. The log

[9] = test system: rats sensitized to the HDM allergen extract; assay: HDM extract challenge in rats sensitized to the HDM allergen extract (BAL cells and mediators); assay type: in vivo, BN rats; details: single i.t. aerosol dose 2 h before (15 μg/kg compound 1, 46 μg/kg compound 2), BAL 48 h
From the text: Control animals received saline vehicle treatment.

[10] = test system: rat airway epithelial cell line L2; assay: Cellular stability in L2 cells; assay type: in vitro ADME; details: 100 nM compound
Description: as §1, §2, §3

[11] = test system: rat hepatocytes; assay: hepatocyte stability (rat); assay type: in vitro ADME
[12] = Plasma protein binding (rat); assay type: in vitro ADME
Description: Plasma protein binding (PPB) was determined using Rapid Equilibrium Dialysis chambers with 8 kDa cut-off inserts (Fisher Scientific UK Ltd, Leicestershire, UK). Rat (Sprague Dawley strain) plasma EDTA K2 (pooled, mixed sex, SeraLab, West Sussex, UK) was centrifuged (13,000 x g, 10 min) to remove precipitates before addition of compounds (initial concentration 5 M). Concentrations were determined by liquid chromatography-tandem mass spectrometry (LC-MS-MS) (AB Sciex 3200 QTrap) after 4 h incubation at 37 °C with binding being calculated from the concentration of compound in each chamber. Assays were performed in replicate and the data expressed as mean ± s.e.

[13] = target: T1, Der p 1 (Dermatophagoides pteronyssinus, UniProt P08176); assay type: biochemical; details: Figure 5A, in words
T1 construct: from tissue; host or cells: spent culture medium of Dermatophagoides pteronyssinus (native HDM extract); ammonium sulfate precipitation, size exclusion, SBTI column, Resource Q
T1 sequence (P08176 99-320): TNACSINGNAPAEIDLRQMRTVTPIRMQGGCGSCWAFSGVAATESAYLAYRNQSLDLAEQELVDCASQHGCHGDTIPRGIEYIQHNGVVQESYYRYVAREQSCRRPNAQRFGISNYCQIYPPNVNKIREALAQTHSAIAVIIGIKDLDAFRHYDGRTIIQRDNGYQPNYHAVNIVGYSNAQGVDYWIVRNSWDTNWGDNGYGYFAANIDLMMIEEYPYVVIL
Description: Assays were assembled in 96-well plate format using a PerkinElmer Multiprobe II Plus HTS EX robot (PerkinElmer, UK). […] Reactions were initiated by the addition of 10 μL Der p 1 dissolved in the reaction buffer at 2.5 μg/mL and followed at 30 °C by measurement of fluorescence (excitation/emission 330/420 nm) using either a Fusion Alpha-FP or Envision plate reader fitted with a temperature-controlled carrier (PerkinElmer, UK).
Inhibitor kinetics were analyzed from progress curves. For reversible inhibitors, IC50 values were calculated conventionally.

[14] = single i.t. dose (15 μg/kg compound 1, 46 μg/kg compound 2), BAL 48 h

For `CC(C)[C@H](NC(=O)[C@H](C)NC(=O)[C@@H](NC(=O)C1CC[N+](C)(C)CC1)C(C)(C)C)C(=O)C(=O)NCc1ccccc1` [Compound 2, 4-{(S)-1-[(S)-1-((S)-1-benzylaminooxalyl-2-methyl-propylcarbamoyl)-ethylcarbamoyl]-2,2-dimethyl-propylcarbamoyl}-1,1-dimethyl-piperidinium formate], the remaining at 2 h [1] was 100%, the half-life ([2]; male, Sprague-Dawley, rat, plasma, po, 5 mg/kg, half-life, fed) was 18 min and the volume of distribution [2] was 0.3 L/kg. The clearance ([2]; fasted) was 19 (fasted) mL/min/kg, the neutrophil response ([3]; BAL performed 24 h after HDM extract challenge, dosed 2 h prior) was “clear inhibition” and the “inhibition of BAL monocytes/macrophages (significance)” value ([3]; dosing 120 min prior to challenge, 46 μg/kg i.t., BAL 48 h) was “significant”. The “performance in vivo (maximum inhibition of the eosinophil response, Figure 5A)” value [3] was “performed well”, the “effects on BAL neutrophils” value ([3]; intervening pretreatment intervals, BAL 48 h) was “insignificant” and the “effect on BAL neutrophils (significance)” value ([3]; pretreatment 60 min, 46 μg/kg i.t., BAL 48 h) was “significant”. For the same compound, the “effect on BAL neutrophils (significance)” value ([3]; pretreatment 360 min, 46 μg/kg i.t., BAL 48 h) was “significant”, the “effects on BAL neutrophils” value ([3]; short or long pretreatment intervals, BAL 48 h) was “inhibitory” and the “effect on BAL monocytes/macrophages” value ([3]; shorter pretreatment times, BAL 48 h) was “modest inhibition”. For the same compound, the “effect on eosinophils with 6–8 h separation of dose and challenge” value [3, 14] was “substantial inhibition”, the “time of administration before challenge giving peak effects on eosinophils” value [3, 14] was 2 h and the hepatocyte half-life [4] was “∞ (rat); ∞ (human)”. It also gave a solubility thermodynamic [5] greater than 1600 µM, a remaining at 2 h [6] of 100% and a fraction unbound at 4 h, 5 µM [7] of 0.37. The cell stability [8] was 100;100, the “changes in BAL cells after HDM challenge” value ([9]; HDM 10 (10 μg Der p 1) i.t. aerosol) was “attenuated” and the “BAL eosinophils after HDM challenge” value ([9]; HDM 10) was “eosinophil suppression”. For the same compound, the “BAL monocytes/macrophages after HDM challenge” value ([9]; HDM 10) was “No effects”, the “BAL neutrophil responses after HDM challenge” value ([9]; HDM 10) was “not significant” and the cell stability [10] was 100;100. The hepatocyte half-life [11] was “∞ (rat); ∞ (human)” and the plasma protein binding [12] was 61%.
In the case of `CC(C)[C@H](NC(=O)[C@H](C)NC(=O)[C@H](Cc1ccccc1)NC(=O)c1ccncc1)C(=O)C(=O)NCc1ccccc1` [Compound 11, N-((S)-1-(((S)-1-(((S)-1-(benzylamino)-4-methyl-1,2-dioxopentan-3-yl)amino)-1-oxopropan-2-yl)amino)-1-oxo-3-phenylpropan-2-yl)isonicotinamide], the “potency against the target molecule in vitro” value [13] is reported as “less potent than others”, the “BAL neutrophil response: significance of effect (P<0.05)” value ([3]; all time points, naive BN rats, HDM extract 10 µg Der p 1, single i.t. aerosol dose 50:1 molar equivalents) is reported as “not significant” and the “Reduction in BAL eosinophil response: significance of inhibition (P<0.05)” value ([3]; all time points, naive BN rats, HDM extract 10 µg Der p 1, single i.t. aerosol dose 50:1 molar equivalents to Der p 1) is reported as “significant”. The “performance in vivo (maximum inhibition of the eosinophil response, Figure 5A)” value [3] was “effective”.
